Results on 39 molecules are retold here after a melting point compilation (Tetko et al.).

Regarding `O=C(C=Cc1ccccc1)c1ccc(O)cc1`, the melting point – broadly, the temperature of the solid-liquid transition – was in the range of 174 to 178 °C. `CCOC(=O)c1c[nH]nc1C` displayed a melting point of 136 to 138 °C.

`Cc1cncc(Cl)n1` came in with a melting point of 48 to 52 °C.

`CC(C)C(=O)C(=O)O` displayed a melting point of 31.5 °C. Next, `NC(=O)/C(=N\Nc1cccc(C(F)(F)F)c1)c1nc2ccccc2s1`: 190 °C; `O=C1CCC/C1=C1\C(=O)Nc2ccccc21`: 267 °C. The figure for `CC(C)(C)N(NC(=O)c1ccccc1)C(=O)c1ccccc1[N+](=O)[O-]` is 182 °C; for `CC12C=C(C=O)C(=O)C=C1CCC1C2C(O)CC2(C)C1CCC2(C)O` (centres undefined) it is 210 °C. On to `O=C(Cc1cc(CC(=O)c2ccccc2)c([N+](=O)[O-])cc1[N+](=O)[O-])c1ccccc1`, for which the melting point is 170 to 171 °C. On to `O=C1C(=C2C=Cc3cc(-c4ccccc4)ccc3N2)C(=O)c2ccccc21`, for which the melting point lay within 270 to 271 °C.

On to `O=C(NCCc1ccccc1)c1cc([N+](=O)[O-])cc([N+](=O)[O-])c1`, for which the melting point turned out to be 204 °C. Next, `Cn1c(=O)c2[nH]c(Cl)nc2n(C)c1=O`: 290 °C; `CCCCCC(=O)c1ccccc1`: 27 °C; `CC(=O)Oc1ccc2c(c1)Oc1cc(OC(C)=O)ccc1C21OC(=O)c2ccccc21`: 200 to 205 °C. Next, `ON=C1CCCCCN1`: 168 to 170 °C. Next, `CC(=O)c1ccc(O)c([N+](=O)[O-])c1`: 132 °C.

Molecule `CC1(C)CCC(C)(C)C1` showed a melting point of -88.4 °C. In turn, `Cc1nn(-c2ccccc2)c2oc3sccc3c(=S)c12` gave a melting point of 194 to 196 °C.

Molecule `CC(C)(NC(=O)OCc1ccccc1)C(=O)O` showed a melting point of 77 to 80 °C. The figure for `CC1CCCCN1CCCOC(=O)c1ccc(Cl)c(Cl)c1` (centres undefined) is 25 °C; for `BrCC(Br)c1cccc(C(Br)CBr)c1` (centres undefined) it is 65 °C. Next, `CC(C)NNC(=O)c1ccncc1`: 150 °C; `O=C(Oc1ccc(Cl)cc1Cl)c1ccc(C(=O)Oc2ccc(Cl)cc2Cl)cc1`: 217 °C. Next, `O=S(=O)(Cl)c1ccccc1OC(F)(F)F`: 31 °C. Consider `O=C(C=Cc1ccc(C=CC(=O)Nc2ccccc2)cc1)Nc1ccccc1`, for which the melting point fell in the range of 292 to 294 °C. The figure for `CN1CCc2cc3c(cc2C1)OCO3` is 66 °C. The figure for `C#CCCCCCCC` is -50 °C; for `CC(C)(N)P(=O)(O)O` it is 287 to 290 °C.

In the case of `Nc1nc(N)nc(NC2CC2)n1`, the melting point amounted to 225 °C. Next, `CC(C=CC=C(C)C=CC1=C(C)CC(O)CC1(C)C)=CC=CC=C(C)C=CC=C(C)C1C=C2C(C)(C)CC(O)CC2(C)O1` (centres undefined): 184 °C; `CCCCCCCCCCCCCCCCCCC(C)c1ccccc1` (centres undefined): 29 °C. Next, `COCC(=O)N(c1c(C)cccc1C)N1CCOC1=O`: 104 °C; `O=C(Nc1ccc(N=Nc2ccc([N+]([O-])=Nc3ccc(NC(=O)c4ccccc4)cc3)cc2)cc1)c1ccccc1`: 328 °C.

As to `CC(CC(C)(C)C)CC(C)(C)C`, the melting point was -67 °C. The figure for `C[C@]12CCC(=O)C=C1CC[C@@H]1[C@@H]2CC[C@]2(C)C(=O)CC[C@@]12O` is 256 to 260 °C; for `COC(=O)CCC(C)C1CCC2=C3CCC4CC(OC(C)=O)CCC4(C)C3CC(OC(C)=O)C21C` (centres undefined) it is 234 °C.

`CC(=O)NC1C(Oc2ccccc2[N+](=O)[O-])OC(CO)C(O)C1O` (centres undefined) gave a melting point of 204 to 208 °C. The figure for `O=C1c2cccc(O)c2C(=O)c2c(O)cccc21` is 193 °C; for `O=C(CBr)c1cc(-c2ccc(Cl)c(Cl)c2)no1` it is 114 to 118 °C.
